Experimental data: patent EP2787958B1, “CHELIDONIUM MAJUS EXTRACTS AND THEIR USE IN THE TREATMENT OF SKIN DISORDERS AND PROMOTION OF SKIN REGENERATION” (priority 2011, dated 2013)
Where two headings read alike, the source gives them in different places.

Experiments:
interleukin 1β (IL-1β) = assay: Inflammatory cytokines in cell supernatant (Mosaic ELISA microarray): IL-1β; type: cell-based, Human; conditions: for IL-1β ng/(ml* No. of cells from photo) ± SD: 24 hours
interleukin 6 (IL-6) = assay: Inflammatory cytokines in cell supernatant (Mosaic ELISA microarray): IL-6; type: cell-based, Human; conditions: for IL-6 ng/(ml* No. of cells from photo) ± SD: 24 hours
HDF cells [1] = assay: Evaluation of cell morphology (Sirius Red stained cells, microscopy); type: cell-based, Human
Experimental: Their morphology, colour and shape have been evaluated by using the ImageJ software program.
The results of the effects on cell morphology, produced by the treatment with the test compounds for 24 hours at the concentrations specified, in HDF cells stained for collagen with PSR are shown in Figures 4a-d, 5a-d and 6a-f. These Figures allow evaluating cell morphology through light microscopy observation at magnifications of 100x, 200x and 400x for HDF cells cultured under standard growth conditions, in the presence of 100 µM H2O2 and in the presence of 34 ng/ml TGF-β1.

[2] = Anti-radical activity (decay of the DPPH radical); type: biochemical; conditions: for Anti-radical (skin protective): 24 hours
In short: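 Test substance in ethanol mixed 1:1 with 200 µM DPPH (stock concentrations), in quadruplicate. Absorbance read at 530 nm after 30 min, with vitamin C and ethanol-only controls. IC50 from variable-slope Hill regression of dose-activity curves.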

HDF cells [3] = assay: Summary of uses and toxic effects deduced from the cell assays (Table 1); type: cell-based, Human; conditions: for Anti-fibrotic (prevention of scar formation, also from acne) / Cytoprotective (antioxidant, anti-inflammatory and anti-ageing; useful also in the treatment of acne) / Cytotoxic / Irritant / Wound-healing: 24 hours
In short: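 HDF cells exposed to test substances at a given dosage for 24 h; uses and toxicity inferred from free-radical scavenging, mitochondrial dehydrogenase activity, IL-1β/IL-6 production (basal or induced by 100 µM H2O2), proliferation under standard growth conditions, and senescence-like morphology.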

[4] = system: collagen produced by HDF cells; assay: Quantity of collagen produced by the cells (elution of Sirius Red)
[5] = system: Human dermal fibroblasts (HDF); assay: Mitochondrial dehydrogenase activity (WST-1 formazan assay) in HDF cells; conditions: for mitochondrial dehydrogenase activity (effect in words): 1 µM; for Revitalizing agent: 24 hours; for activity at 1 µM / activity at 10 µM: Homo sapiens, Fibroblast, read-out: % mitochondrial dehydrogenase activity ± SD
HDF cells [6] = assay: Evaluation of cell proliferation (counting of Sirius Red stained cells in photographs); conditions: for No. of cells from photo ± SD: 24 hours
[7] = Dose 1 µm (coptisine: 1 pm [sic])

With CN1Cc2c(ccc3c2OCO3)[C@@H]2[C@H]1c1cc3c(cc1C[C@@H]2O)OCO3 [chelidonine] the “IL-1β production (effect in words)” value (interleukin 1β (IL-1β); 1 µM, 34 ng/ml TGF-β1) was “antagonizes the production of IL-1β”, the “IL-1β ng/(ml* No. of cells from photo) ± SD” value (interleukin 1β (IL-1β); 1 µM, 34 ng/ml TGF-β1) was 127±26 ng/(ml* No. of cells from photo) and the “IL-1β production (effect in words)” value (interleukin 1β (IL-1β); 1 µM, 100 µM H2O2) was “antagonizes the production of IL-1β”. For the same compound, the “IL-1β ng/(ml* No. of cells from photo) ± SD” value (interleukin 1β (IL-1β); 1 µM, 100 µM H2O2) was 115±8 ng/(ml* No. of cells from photo), the “IL-1β ng/(ml* No. of cells from photo) ± SD” value (interleukin 1β (IL-1β); 1 µM, Standard conditions) was 666±30 ng/(ml* No. of cells from photo) and the “IL-1β production (effect in words)” value (interleukin 1β (IL-1β); 1 µM, standard conditions) was “inhibits the production of IL-1β”. The “IL-1β production (effect in words)” value (interleukin 1β (IL-1β); 10 µM, 34 ng/ml TGF-β1) was “stimulates IL-1β production”, the “IL-1β ng/(ml* No. of cells from photo) ± SD” value (interleukin 1β (IL-1β); 10 µM, 34 ng/ml TGF-β1) was 363±27 ng/(ml* No. of cells from photo) and the “IL-1β production (effect in words)” value (interleukin 1β (IL-1β); 10 µM, 100 µM H2O2) was “stimulates IL-1β production”. For the same compound, the “IL-1β ng/(ml* No. of cells from photo) ± SD” value (interleukin 1β (IL-1β); 10 µM, 100 µM H2O2) was 366±35 ng/(ml* No. of cells from photo), the “IL-1β ng/(ml* No. of cells from photo) ± SD” value (interleukin 1β (IL-1β); 10 µM, Standard conditions) was 17500±700 ng/(ml* No. of cells from photo) and the “IL-1β production (effect in words)” value (interleukin 1β (IL-1β); 10 µM, standard conditions) was “stimulates IL-1β production”. The “IL-6 production (effect in words)” value (interleukin 6 (IL-6); 1 µM, 34 ng/ml TGF-β1) was “antagonizes the production of IL-6”, the “IL-6 ng/(ml* No. of cells from photo) ± SD” value (interleukin 6 (IL-6); 1 µM, 34 ng/ml TGF-β1) was 620±72 ng/(ml* No. of cells from photo) and the “IL-6 production (effect in words)” value (interleukin 6 (IL-6); 1 µM, 100 µM H2O2) was “antagonizes the production of IL-6”. The “IL-6 ng/(ml* No. of cells from photo) ± SD” value (interleukin 6 (IL-6); 1 µM, 100 µM H2O2) was 697±87 ng/(ml* No. of cells from photo), the “IL-6 ng/(ml* No. of cells from photo) ± SD” value (interleukin 6 (IL-6); 1 µM, Standard conditions) was 2883±553 ng/(ml* No. of cells from photo) and the “IL-6 production (effect in words)” value (interleukin 6 (IL-6); 1 µM, standard conditions) was “inhibits the production of IL-6”. The “IL-6 production (effect in words)” value (interleukin 6 (IL-6); 10 µM, 34 ng/ml TGF-β1) was “stimulates IL-6 production”, the “IL-6 ng/(ml* No. of cells from photo) ± SD” value (interleukin 6 (IL-6); 10 µM, 34 ng/ml TGF-β1) was 1231±76 ng/(ml* No. of cells from photo) and the “IL-6 production (effect in words)” value (interleukin 6 (IL-6); 10 µM, 100 µM H2O2) was “stimulates IL-6 production”. The “IL-6 ng/(ml* No. of cells from photo) ± SD” value (interleukin 6 (IL-6); 10 µM, 100 µM H2O2) was 1990±32 ng/(ml* No. of cells from photo), the “IL-6 ng/(ml* No. of cells from photo) ± SD” value (interleukin 6 (IL-6); 10 µM, Standard conditions) was 38100±8300 ng/(ml* No. of cells from photo) and the “IL-6 production (effect in words)” value (interleukin 6 (IL-6); 10 µM, standard conditions) was “stimulates IL-6 production”. The cell morphology (HDF cells [1]; 1 µM) was “No changes in cell morphology”, the cell morphology (HDF cells [1]; 10 µM) was “Very obvious changes in cell morphology” and the “% DPPH activity” value ([2]; 1 mM, 30 minutes) was 98%. The “Anti-radical (skin protective)” value [2, 7] was “No”, the “Anti-radical (skin protective)” value ([2]; Dose 10 µm) was “No” and the “Anti-fibrotic (prevention of scar formation, also from acne)” value (HDF cells [3]; [7]) was “Yes (↓collagen, ↓IL-6, ↓IL-1β)”. The “Cytoprotective (antioxidant, anti-inflammatory and anti-ageing; useful also in the treatment of acne)” value (HDF cells [3]; [7]) was “Yes (↓IL-6, ↓IL-1β)”, the Cytotoxic (HDF cells [3]; [7]) was “No” and the Irritant (HDF cells [3]; [7]) was “No”. The Wound-healing (HDF cells [3]; [7]) was “Yes (↓IL-1β)”, the “Anti-fibrotic (prevention of scar formation, also from acne)” value (HDF cells [3]; Dose 10 µm) was “No” and the “Cytoprotective (antioxidant, anti-inflammatory and anti-ageing; useful also in the treatment of acne)” value (HDF cells [3]; Dose 10 µm) was “No”. For the same compound, the Cytotoxic (HDF cells [3]; Dose 10 µm) was “Yes (senescent morph., ↓dehydrogenase)”, the Irritant (HDF cells [3]; Dose 10 µm) was “Yes (↑IL-6, ↑IL-1β)” and the Wound-healing (HDF cells [3]; Dose 10 µm) was “No”. For the same compound, the “concentrations at which no toxic (cytotoxic and irritant) effects are shown” value (HDF cells [3]; exposure for 24 hours) was “less than or equal to 1 µM”, the “collagen production (effect in words)” value ([4]; 1 µM, 34 ng/ml TGF-β1) was “tendency to antagonize collagen stimulation induced by TGF-β1” and the “collagen production (effect in words)” value ([4]; 1 µM, 100 µM H2O2) was “tendency to inhibit collagen production”. The “collagen production (effect in words)” value ([4]; 1 µM, standard conditions) was “no evident ability to modulate collagen production”, the “collagen production (effect in words)” value ([4]; 10 µM, 34 ng/ml TGF-β1) was “stimulates collagen production” and the “collagen production (effect in words)” value ([4]; 10 µM, 100 µM H2O2) was “stimulates collagen production”. The “collagen production (effect in words)” value ([4]; 10 µM, standard conditions) was “stimulates collagen production”, the “concentrations below which no significant effects on mitochondrial dehydrogenase activity are shown” value [5] was “less than 0.1 µM” and the “mitochondrial dehydrogenase activity (effect in words)” value ([5]; 18 h) was “absence of effects”. For the same compound, the “mitochondrial dehydrogenase activity (effect in words)” value ([5]; increased exposure time) was “significant inhibition of mitochondrial dehydrogenase activity”, the Revitalizing agent [5, 7] was “No” and the Revitalizing agent ([5]; Dose 10 µm) was “No”. It also gave an activity at 1 µM ([5]; 18 h) of 105 ± 7.05%, an activity at 10 µM ([5]; 18 h) of 89.3 ± 6.9% and an activity at 1 µM ([5]; 42 h) of 64.7 ± 5.88%. For the same compound, the activity at 10 µM ([5]; 42 h) was 30.3 ± 2.97%, the “inhibitory power toward the mitochondrial dehydrogenase activity” value ([5]; skin fibroblast cells and/or keratinocytes) was “marked inhibitory power” and the “cell proliferation (effect in words)” value (HDF cells [6]; 1 µM) was “no evident ability to modulate cell proliferation”. The “No. of cells from photo ± SD” value (HDF cells [6]; 1 µM, 34 ng/ml TGF-β1) was 184±25, the “No. of cells from photo ± SD” value (HDF cells [6]; 1 µM, 100 µM H2O2) was 189±37 and the “No. of cells from photo ± SD” value (HDF cells [6]; 1 µM, Standard conditions) was 202±21. The “cell proliferation (effect in words)” value (HDF cells [6]; 10 µM) was “marked inhibition of proliferation”, the “No. of cells from photo ± SD” value (HDF cells [6]; 10 µM, 100 µM H2O2) was 101±4 and the “No. of cells from photo ± SD” value (HDF cells [6]; 10 µM, Standard conditions) was 109±16.
